This is an account of results in US20250136650A1, “COMPOSITIONS AND METHODS FOR DNA BINDING AND TRANSCRIPTIONAL REGULATION” (THE UNIVERSITY OF CHICAGO, priority 2021, published 2025).

By IC50 is commonly meant the concentration needed to halve the response being measured.

Entries after “also recorded” stand apart in the source; their conditions may differ.

In one test the test system is MDA-MB-231 cells. Kind of test: Boyden chamber invasion, MDA-MB-231. Type of test: cell-based, human. The conditions noted are these: MDA-MB-231, 20 μM, 24 hours, hypoxia. How it is done: Boyden Chamber Invasion Assay. Each Boyden chamber membrane (Fisher Scientific, 353097) was coated with a thin layer of Basement Membrane Extract (BME, 200 μl of 0.25 mg/ml stock; 50 μg total BME per membrane) and incubated at 37° C. for 1 hr. Cells were trypsinized, neutralized in 10% FBS DMEM media, and centrifuged at 500×g for 5 min followed by two rounds of PBS washes to remove remaining serum-containing media. Cells were then resuspended in serum-free media and diluted to the desired concentration for plating onto the Boyden chamber. 1×10^6 MDA-MB-231 cells in 300 μL serum-free media were plated on each Boyden chamber. 500 μL of 10% FBS DMEM media was placed in the lower well, acting as the chemoattractant. Serum-free media placed in the lower wells served as negative controls. Treated cells were plated in 20 μM of STR22. After a 24 hr incubation, the membranes were stained with Calcein AM (Fisher Scientific, 354217) for 1 hr at 37° C. to stain for live cells. The tops of the chambers were swabbed to remove remaining cells, and cells on the bottom of the chamber were dissociated from the membrane by incubating in cell dissociated buffer (R&D Systems, 3455-05-03) in a shaker at 37° C. for 1 hr. Calcein AM signal was measured in Perkin Elmer Victor X3 plate reader as a read-out of invaded cells.

Another test has as its system MDA-MB-231 tumors. Description: MDA-MB-231 mammary fat pad xenograft in nude mice. Type of test: in vivo, mouse. An excerpt: Moreover, hypoxia-induced gene signatures have also been associated with poor disease outcomes in TNBC patients^41,42. Given these associations, the inventors sought to determine how STR22 antagonism of HIF1α-dependent signaling would affect TNBC cell phenotypes in cell culture and in vivo. […] Therefore, the inventors sought to determine whether STR22 treatment would affect the growth of TNBC cells in the in vivo context of tumor xenografts. To do so, the inventors generated MDA-MB-231 xenografts in the mammary fat pads of nude mice; after tumors reached 100 mm^3-a size previously shown capable of creating hypoxic microenvironments^43-matched cohorts (n=10) were treated once every three days with intratumoral injections of STR22 or saline vehicle alone (FIG. 104C). […] A separate study using fewer MDA-MB-231 cells to generate xenografts replicated these findings ([…]). […] Mouse Xenograft Studies. […] Tumor growth was monitored twice a week using digital caliper measurements in two dimensions (A, B) to estimate volume. Tumor volume was calculated as: (A*B^2)/2, where B is the […] diameter and A is the diameter perpendicular to B. Tumor growth (V/V0) or final volume/mass was shown as mean+/-s.e.m. with P values determined by multiple unpaired t-tests. […]

In test [1] the test system is SUM159 cells, HRE-regulated genes. Description: qPCR of hypoxia-induced genes, SUM159. Type of test: cell-based. The conditions noted are these: SUM159, 20 μM, 24 hours. How it is done: Real-Time PCR. mRNA was extracted using RNeasy plus Mini Kit (Qiagen). 1.5 μg mRNA sample was reverse transcribed into cDNA using a reverse transcription kit (Invitrogen A48570) and then subjected to SYBR-green based real-time PCR analysis (Invitrogen A25741). Primers used: […]
On the technique in general: Quantitative PCR measures a nucleic acid by following its amplification.

Another test concerns XBP1s. Description: 3xUPRE-regulated luciferase reporter, FLAG-XBP1s expressing cells. The test is classed as cell-based, human. To be noted: HeLa. How it is done:
Luciferase Assays. Approximately 2×10^4 HeLa cells were seeded in the each well of a 96-well plate. […] Cells were then lysed in diluted cell culture lysis 5× buffer (Promega). 1× luciferase reagents (1 mM D-luciferin, 3 mM ATP, 15 mM MgSO4, 30 mM HEPES pH=7.8) were then added and the mixtures were read for luminescence. For hypoxia response experiments, cells were transfected with 5×HRE-luc (PGK1-derived HRE promoter, Addgene, 128095) vector using Lipofectamine 3000 (Invitrogen) for 4 hrs and then treated with STR22 under 1% 02 (hypoxia) for 24 hrs. Luminescence was read following the aforementioned protocol.
(In general: A reporter such as luciferase makes a cellular process visible.)

For a further test, the system named is UPRE mutant sequence. Kind of test: Competitive EMSA with mutant oligo. Type of test: binding. The method, then: The DNA binding dimer STR22 (shown in FIG. 21 and FIG. 27) was synthesized. STR22 was subjected to EMSA to measure binding to either the UPR element (UPRE) or AP-1 binding site (AP-1).
Electrophoretic Mobility Shift Assays (EMSAs): For direct DNA binding experiments, STRs were serially diluted at 10× concentration in water and then 1 μL of STR solution was added to 9 μL of 5 nM IRD700-labeled DNA probe bearing either a UPRE or AP-1 motif in a final 1×binding buffer (20 mM HEPES pH 8.0, 150 mM NaCl, 5% glycerol, 1 mM EDTA, 2 mM MgCl2, 0.5 mg/mL BSA, 1 mM DTT, 0.05% NP-40). Samples were incubated for 1 hr at RT. 5 μL of each reaction was loaded on an 8% acrylamide, 0.5×TBE gel equilibrated to 4° C. Samples were resolved for 60 min at 110 V and 4° C. with 0.5×TBE+1 mM MgCl2 running buffer. Gels were pre-run at 110 V for 15 min prior to sample loading. For competition experiments, 30 or 60 nM STRs and 5 nM labeled UPRE probe were incubated with 0, 7.8, 13, 21.6, 36, 60 or 100 nM unlabeled competitor oligo for 1 hr at RT. Gels were imaged using a Li—COR Odyssey. ImageJ was used to quantify band intensity and the fraction of bound DNA was calculated by dividing the band intensity of bound DNA by the band intensity of free DNA from the vehicle treated lane. A four-parameter dose-response curve fit to a plot of normalized fraction bound DNA vs. log STR concentration yielded an the apparent KD. […]
In general terms: In EMSA bound probe runs differently from free probe, usually more slowly.

The test system of a further test is SUM159 cells. Description: Boyden chamber invasion, SUM159. The test is classed as cell-based. To be noted: SUM159, hypoxia, 24 hours.

Take “XBP1-derived stapled dimer: RRK^KNR^AAQTARDRKKA#LSELEQQVVDLE linked to RRK^KNR^AAQTARDRKKARLSEL#QQVVDLE; FIG. 27 [STR22]”: the cell invasion result is reported as “significantly inhibited cell invasion” in the test with MDA-MB-231 cells and “inhibited cell invasion” in the test with SUM159 cells. The “HIF1α-dependent target gene expression in tumors (qPCR)” value in the test with MDA-MB-231 tumors (24 hours after last injection) is given as “inhibition of hypoxia-induced gene expression”. Besides, in the test on MDA-MB-231 tumors (nude mice, intratumoral injections, about three weeks), the tumor volume result is listed as “significantly inhibited”. In addition, the “hypoxia-induced gene expression (qPCR)” value in test [1] is given as “inhibited this induction”. Also, the “luciferase reporter expression, FLAG-XBP1s” value in the test with XBP1s (2.5-20 μM, 12 hours) is “inhibition of luciferase expression”. In the test with XBP1s (FLAG-XBP1s, 24 hours, read-out: IC50, XBP1s-induced UPRE reporter signal), the IC50 came out at 7.4 ± 3.5 µM. Also, the “binding to / competition by mutant sequence” value in the test on UPRE mutant sequence is “not a mutant oligonucleotide; also recorded: not to the shown mutant sequence”.
